In patent publication US20180291335A1, “MODIFIED POLYNUCLEOTIDES FOR ALTERING CELL PHENOTYPE” (ModernaTX, Inc., priority 2012, published 2018):

Key:
[1] = test system: human embryonic kidney 293 (HEK293) cells; experiment: Cytotoxicity of NTPs, CYTO TOX-GLO assay; format: cell-based
Method: The cytotoxicity of natural and modified nucleoside triphosphates (NTPs) alone or in combination with other bases, was analyzed in human embryonic kidney 293 (HEK293) cells in the absence of transfection reagent. […] 10 ul of the NTPs outlined in Table 12 were combined with 10 ul of lipid dilution and incubated for 30 minutes to form a complex before 80 ul of the HEK293 cell suspension was added to the NTP complex.
Natural and modified NTPs were transfected at a concentration of 2.1 nM, 21 nM, 210 nM, 2.1 um, 21 uM, 210 um or 2.1 mM. NTPs in combination were transfected at a total concentration of NTPs of 8.4 nM, 84 nM, 840 nM, 8.4 uM, 84 uM, 840 uM and 8.4 mM. […] The cytotoxicity of the NTPs and the modified G-CSF mRNA was assayed at 4, 24, 48 and 72 hours post addition to the HEK293 cells using a CYTO TOX-GLO™ assay from Promega (Madison, Wis.) following the manufacturer protocol except pippeting was used for lysing the cells instead of shaking the plates.

[2] = test system: tumor necrosis factor alpha (TNF-α); experiment: In vitro screening in PBMC: tumor necrosis factor alpha induction by ELISA; format: cell-based, human
Text: (§1) The supernatant was harvested and stored frozen until analyzed by ELISA to determine the G-CSF protein expression, and the induction of the cytokines interferon-alpha (IFN-α) and tumor necrosis factor alpha (TNF-α).

[3] = test system: peripheral blood mononuclear cells (PBMC); experiment: In vitro screening in PBMC: G-CSF protein expression by ELISA; format: cell-based, human
Text: as §1

[4] = test system: interferon-alpha (IFN-α); experiment: In vitro screening in PBMC: interferon-alpha induction by ELISA; format: cell-based, human
Text: as §1

[5] = PBMC Donor 1, 500 ng G-CSF mRNA
[6] = PBMC Donor 2, 500 ng G-CSF mRNA
[7] = PBMC Donor 3, 500 ng G-CSF mRNA

## Adenine
[1]; HEK293, individual NTP 2.1 nM, 4 hr
  percent of viable cells: 93.48%
[1]; HEK293, individual NTP 2.1 nM, 24 hr
  percent of viable cells: 86.44%
[1]; HEK293, individual NTP 2.1 nM, 48 hr
  percent of viable cells: 92.12%
[1]; HEK293, individual NTP 2.1 nM, 72 hr
  percent of viable cells: 95.74%
[1]; HEK293, individual NTP 21 nM, 4 hr
  percent of viable cells: 93.21%
[1]; HEK293, individual NTP 21 nM, 24 hr
  percent of viable cells: 87.19%
[1]; HEK293, individual NTP 21 nM, 48 hr
  percent of viable cells: 91.13%
[1]; HEK293, individual NTP 21 nM, 72 hr
  percent of viable cells: 93.88%
[1]; HEK293, individual NTP 210 nM, 4 hr
  percent of viable cells: 90.36%
[1]; HEK293, individual NTP 210 nM, 24 hr
  percent of viable cells: 86.94%
[1]; HEK293, individual NTP 210 nM, 48 hr
  percent of viable cells: 89.17%
[1]; HEK293, individual NTP 210 nM, 72 hr
  percent of viable cells: 92.22%
[1]; HEK293, individual NTP 2.1 uM, 4 hr
  percent of viable cells: 90.23%
[1]; HEK293, individual NTP 2.1 uM, 24 hr
  percent of viable cells: 86.81%
[1]; HEK293, individual NTP 2.1 uM, 48 hr
  percent of viable cells: 89.80%
[1]; HEK293, individual NTP 2.1 uM, 72 hr
  percent of viable cells: 94.58%
[1]; HEK293, individual NTP 21 uM, 4 hr
  percent of viable cells: 91.20%
[1]; HEK293, individual NTP 21 uM, 24 hr
  percent of viable cells: 86.86%
[1]; HEK293, individual NTP 21 uM, 48 hr
  percent of viable cells: 89.94%
[1]; HEK293, individual NTP 21 uM, 72 hr
  percent of viable cells: 93.83%
[1]; HEK293, individual NTP 210 uM, 4 hr
  percent of viable cells: 85.97%
[1]; HEK293, individual NTP 210 uM, 24 hr
  percent of viable cells: 87.31%
[1]; HEK293, individual NTP 210 uM, 48 hr
  percent of viable cells: 90.55%
[1]; HEK293, individual NTP 210 uM, 72 hr
  percent of viable cells: 94.81%
[1]; HEK293, individual NTP 2.1 mM, 4 hr
  percent of viable cells: 90.03%
[1]; HEK293, individual NTP 2.1 mM, 24 hr
  percent of viable cells: 88.42%
[1]; HEK293, individual NTP 2.1 mM, 48 hr
  percent of viable cells: 93.71%
[1]; HEK293, individual NTP 2.1 mM, 72 hr
  percent of viable cells: 97.49%

B1: α-thiocytidine: G-CSF mRNA (SEQ ID NO: 408) fully modified with α-thiocytidine (nucleic acid)
chain: GGGAAAUAAGAGAGAAAAGAAGAGUAAGAAGAAAUAUAAGAGCCACCAUGGCCGGUCCCGCGACCCAAAGCCCCAUGAAACUUAUGGCCCUGCAGUUGCUGCUUUGGCACUCGGCCCUCUGGACAGUCCAAGAAGCGACUCCUCUCGGACCUGCCUCAUCGUUGCCGCAGUCAUUCCUUUUGAAGUGUCUGGAGCAGGUGCGAAAGAUUCAGGGCGAUGGAGCCGCACUCCAAGAGAAGCUCUGCGCGACAUACAAACUUUGCCAUCCCGAGGAGCUCGUACUGCUCGGGCACAGCUUGGGGAUUCCCUGGGCUCCUCUCUCGUCCUGUCCGUCGCAGGCUUUGCAGUUGGCAGGGUGCCUUUCCCAGCUCCACUCCGGUUUGUUCUUGUAUCAGGGACUGCUGCAAGCCCUUGAGGGAAUCUCGCCAGAAUUGGGCCCGACGCUGGACACGUUGCAGCUCGACGUGGCGGAUUUCGCAACAACCAUCUGGCAGCAGAUGGAGGAACUGGGGAUGGCACCCGCGCUGCAGCCCACGCAGGGGGCAAUGCCGGCCUUUGCGUCCGCGUUUCAGCGCAGGGCGGGUGGAGUCCUCGUAGCGAGCCACCUUCAAUCAUUUUUGGAAGUCUCGUACCGGGUGCUGAGACAUCUUGCGCAGCCGUGAAGCGCUGCCUUCUGCGGGGCUUGCCUUCUGGCCAUGCCCUUCUUCUCUCCCUUGCACCUGUACCUCUUGGUCUUUGAAUAAAGCCUGAGUAGGAAG
modifications: α-thiocytidine modified; Description of Artificial Sequence: Synthetic Transcript Sequence
[2]; [5]
  TNF-α Expression: 300 pg/mL
[2]; [6]
  TNF-α Expression: 273 pg/mL
[2]; [7]
  TNF-α Expression: 277 pg/mL
[3]; [5]
  G-CSF Protein Expression: 105 pg/mL
[3]; [6]
  G-CSF Protein Expression: 264 pg/mL
[3]; [7]
  G-CSF Protein Expression: 245 pg/mL
[4]; [5]
  IFN-α Expression: 1,138 pg/ml
[4]; [6]
  IFN-α Expression: 565 pg/mL
[4]; [7]
  IFN-α Expression: 695 pg/mL
[4]; PBMC, G-CSF mRNA, result in words
  cytokine induction: increase cytokine stimulation

B2: mCherry: control mCherry mRNA (SEQ ID NO: 410, Cap1) fully modified with 5-methylcytosine and pseudouridine (nucleic acid)
chain: GGGAAAUAAGAGAGAAAAGAAGAGUAAGAAGAAAUAUAAGAGCCACCAUGGUAUCCAAGGGGGAGGAGGACAACAUGGCGAUCAUCAAGGAGUUCAUGCGAUUCAAGGUGCACAUGGAAGGUUCGGUCAACGGACACGAAUUUGAAAUCGAAGGAGAGGGUGAAGGAAGGCCCUAUGAAGGGACACAGACCGCGAAACUCAAGGUCACGAAAGGGGGACCACUUCCUUUCGCCUGGGACAUUCUUUCGCCCCAGUUUAUGUACGGGUCCAAAGCAUAUGUGAAGCAUCCCGCCGAUAUUCCUGACUAUCUGAAACUCAGCUUUCCCGAGGGAUUCAAGUGGGAGCGGGUCAUGAACUUUGAGGACGGGGGUGUAGUCACCGUAACCCAAGACUCAAGCCUCCAAGACGGCGAGUUCAUCUACAAGGUCAAACUGCGGGGGACUAACUUUCCGUCGGAUGGGCCGGUGAUGCAGAAGAAAACGAUGGGAUGGGAAGCGUCAUCGGAGAGGAUGUACCCAGAAGAUGGUGCAUUGAAGGGGGAGAUCAAGCAGAGACUGAAGUUGAAAGAUGGGGGACAUUAUGAUGCCGAGGUGAAAACGACAUACAAAGCGAAAAAGCCGGUGCAGCUUCCCGGAGCGUAUAAUGUGAAUAUCAAGUUGGAUAUUACUUCACACAAUGAGGACUACACAAUUGUCGAACAGUACGAACGCGCUGAGGGUAGACACUCGACGGGAGGCAUGGACGAGUUGUACAAAUGAUAAGCUGCCUUCUGCGGGGCUUGCCUUCUGGCCAUGCCCUUCUUCUCUCCCUUGCACCUGUACCUCUUGGUCUUUGAAUAAAGCCUGAGUAGGAAG
modifications: Cap1; 5mC/pseudoU modified; Description of Artificial Sequence: Synthetic Transcript Sequence
[2]; [5]
  TNF-α Expression: 67 pg/mL
[2]; [6]
  TNF-α Expression: 100 pg/mL
[2]; [7]
  TNF-α Expression: 133 pg/mL
[3]; [5]
  G-CSF Protein Expression: 5 pg/mL
[3]; [6]
  G-CSF Protein Expression: 168 pg/mL
[3]; [7]
  G-CSF Protein Expression: 164 pg/mL
[4]; [5]
  IFN-α Expression: 100 pg/mL
[4]; [6]
  IFN-α Expression: 75 pg/mL
[4]; [7]
  IFN-α Expression: 143 pg/mL
